# Measurements as given in paper PMC7083880 (Nature Communications, 2020).
# Values joined by “and” are separate entries in the source; they are usually repeats but may differ in a detail not shown here. Equal values may be shown once.
# Experiments:
# [1] = tested on: firefly luciferase (Fluc) gene with UAA nonsense codon at position 109 in HeLa cells; experiment: Firefly luciferase readthrough assay, UAA PTC construct; format: cell-based, human; conditions: for Luciferase activity, UAA PTC: G418 1mg/ml
# CTU1 = target: T1, CTU1 (Homo sapiens, UniProt Q7Z7A3); experiment: UGA readthrough luciferase assay with CTU1 overexpression; format: cell-based;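 for luciferase activity, average: DAP exposure for 24 h before luciferase measurement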;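 for luciferase activity, exp2: DAP exposure for 24 h before luciferase measurement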
# T1 construct: host or cells: HeLa
# T1 sequence (Q7Z7A3 1-348): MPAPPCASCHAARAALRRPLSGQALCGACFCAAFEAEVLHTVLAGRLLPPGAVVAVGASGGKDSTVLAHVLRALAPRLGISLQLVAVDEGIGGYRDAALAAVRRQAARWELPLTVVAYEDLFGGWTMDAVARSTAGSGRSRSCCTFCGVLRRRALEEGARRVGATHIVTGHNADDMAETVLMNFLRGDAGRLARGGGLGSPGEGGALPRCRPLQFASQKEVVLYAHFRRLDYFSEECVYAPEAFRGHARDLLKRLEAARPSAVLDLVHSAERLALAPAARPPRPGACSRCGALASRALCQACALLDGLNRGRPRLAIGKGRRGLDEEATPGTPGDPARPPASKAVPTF
# Source text: Firefly luciferase from HEK293FT cells transfected with the Fluc-int-UGA construct was immunoprecipitated and digested with trypsin. The MS/MS spectrum of the peptide containing the PTC position and the sequence determination are shown. The upper red and blue sequences indicate the amino acids validated, respectively, by detection of Nter and Cter peptide fragments (b and y ion series). Peptide fragments y6 and y7 clearly identify tryptophan (W) at the PTC position. The black peaks correspond to non-attributed mass-to-charge ratio (m/z) values. […] Readthrough efficiency was determined by measuring luciferase activity in HeLa cells co-transfected with the firefly luciferase construct described in Fig. 1b and with increasing amounts of an expression vector for either FTSJ1 or CTU1 (0.5, 1, or 2 µg). The empty expression vector (E.v.) was used as control. […] The experiment was performed twice and the results of both experiments (Exp1 and Exp2) are shown. c Western blot analysis of FTSJ1 and CTU1. d 2′-O-methylation analysis of tRNA^Trp, tRNA^SER, and tRNA^GLN by RiboMethSeq. […] A molecular weight marker is indicated to the left of each gel. p-values (p) were calculated using Student’s t-test. Source data are provided as a Source Data file.
# Among the enzymes modifying tRNAs liable to recognize a stop codon by extended wobbling, human FTSJ1 (TRM7 in yeast) exclusively modifies tRNAs involved in UGA readthrough. In addition to other tRNA targets, FTSJ1 methylates the cytosine at position 34 of tRNA^Trp. Inhibition of this modification could increase the capacity of tRNA^Trp to misdecode and recognize the UGA stop codon. […] FTSJ1 and CTU1 overexpression were assessed by western-blot analysis (Fig. 5c).
smiles,measurement,setting,value
"CN[C@@H]1[C@@H](O)[C@@H](O[C@@H]2[C@@H](O)[C@H](O[C@H]3O[C@H]([C@@H](C)O)[C@@H](O)[C@H](O)[C@H]3N)[C@@H](N)C[C@H]2N)OC[C@]1(C)O [G418, reference compound]","Correction of the UAA nonsense mutation (luciferase activity), in words",[1]; Fig. 1c,only weakly corrected the UAA nonsense mutation
same,"Luciferase activity, UAA PTC",[1]; average of 2 experiments,495±34 and 495
same,"Luciferase activity, UAA PTC",[1]; experiment 1,471
same,"Luciferase activity, UAA PTC",[1]; experiment 2,519
same,"luciferase activity, average","CTU1; 0.5µg CTU1, 25µM",3303.88
same,"luciferase activity, exp1","CTU1; 0.5µg CTU1, 25µM",2866.5
same,"luciferase activity, exp1*1,5","CTU1; 0.5µg CTU1, 25µM",4299.75
same,"luciferase activity, exp2","CTU1; 0.5µg CTU1, 25µM",2308
same,"luciferase activity, average","CTU1; 0.5µg CTU1, 600µM",6542.12
same,"luciferase activity, exp1","CTU1; 0.5µg CTU1, 600µM",5872.5
same,"luciferase activity, exp1*1,5","CTU1; 0.5µg CTU1, 600µM",8808.75
same,"luciferase activity, exp2","CTU1; 0.5µg CTU1, 600µM",4275.5
same,"luciferase activity, average","CTU1; 1µg CTU1, 25µM",3585
same,"luciferase activity, exp1","CTU1; 1µg CTU1, 25µM",3346
same,"luciferase activity, exp1*1,5","CTU1; 1µg CTU1, 25µM",5019
same,"luciferase activity, exp2","CTU1; 1µg CTU1, 25µM",2151
same,"luciferase activity, average","CTU1; 1µg CTU1, 600µM",5848.5
same,"luciferase activity, exp1","CTU1; 1µg CTU1, 600µM",6204
same,"luciferase activity, exp1*1,5","CTU1; 1µg CTU1, 600µM",9306
same,"luciferase activity, exp2","CTU1; 1µg CTU1, 600µM",2391
same,"luciferase activity, average","CTU1; 2µg CTU1, 25µM",2193.38
same,"luciferase activity, exp1","CTU1; 2µg CTU1, 25µM",1845.5
same,"luciferase activity, exp1*1,5","CTU1; 2µg CTU1, 25µM",2768.25
same,"luciferase activity, exp2","CTU1; 2µg CTU1, 25µM",1618.5
same,"luciferase activity, average","CTU1; 2µg CTU1, 600µM",2999.5
same,"luciferase activity, exp1","CTU1; 2µg CTU1, 600µM",2670
same,"luciferase activity, exp1*1,5","CTU1; 2µg CTU1, 600µM",4005
same,"luciferase activity, exp2","CTU1; 2µg CTU1, 600µM",1994
